Reference: paper PMC9007462 (Journal of Medicinal Chemistry, 2022)

How the values were obtained:
Human ALDH3A1 = target: T1, Human ALDH3A1 (Homo sapiens, UniProt P30838); assay: ALDH3A1 inhibition, IC50, Ki and type of inhibition; type: biochemical; settings: for IC50: 31 μM 4-NBA as substrate
T1 construct: made in house
T1 sequence (P30838 1-453): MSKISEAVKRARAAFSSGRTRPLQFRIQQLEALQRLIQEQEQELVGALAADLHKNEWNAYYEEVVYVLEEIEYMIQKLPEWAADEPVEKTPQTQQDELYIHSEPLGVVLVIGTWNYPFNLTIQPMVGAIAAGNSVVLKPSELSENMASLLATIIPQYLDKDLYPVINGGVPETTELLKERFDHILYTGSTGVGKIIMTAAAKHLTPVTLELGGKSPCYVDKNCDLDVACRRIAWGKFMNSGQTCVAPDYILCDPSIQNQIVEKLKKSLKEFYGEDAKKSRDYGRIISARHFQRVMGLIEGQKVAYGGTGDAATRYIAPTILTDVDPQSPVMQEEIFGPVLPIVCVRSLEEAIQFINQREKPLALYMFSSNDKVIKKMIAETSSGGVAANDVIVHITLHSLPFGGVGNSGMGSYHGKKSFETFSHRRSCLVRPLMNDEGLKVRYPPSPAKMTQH

DU145 = assay: MTT chemosensitivity assay, DU145; type: cell-based, human; settings: Homo sapiens, DU-145, 96 h exposure, ± SD, at least three independent experiments
[1] = system: patient-derived primary prostate tumor epithelial cells; assay: Alamar Blue cell viability of primary prostate epithelial cultures; type: cell-based, human; settings: 72 h; for cell viability of primary prostate epithelial cultures, combination with docetaxel: 50 and 200 μM + 1 nM docetaxel; for cell viability of primary prostate epithelial cultures, single agent: 50 and 200 μM, four cancer samples and one BPH
Method: Primary cells cultured at early passage from human prostate tissue biopsies included one BPH sample H415/15–BPH/PSA 0.61 and four PCa samples H568/15 RM–Gl7(3 + 4)/PSA 8.5, H431/14 LM–Gl7(3 + 4)/PSA 14, H488/14 RM–Gl7(3 + 4)/PSA 12.6, and H517/15 RM–Gl7(3 + 4)/PSA 4.4. Primary cells were obtained with ethical consent (REC ref 07/H1304/121) at radical prostatectomy (cancer) and transurethral resection (BPH) and were seeded as previously described[37] in 96-well plates 5000 cells/well in 100 μL of SCM and incubated at 37 °C, 5% CO2 for 24 h. […] Cells were treated with 100 μL of ALDH inhibitors at concentrations of 50 and 200 μM as single treatment. Combination treatments included 100 μL of 50 μM ALDH inhibitor + 1 nM docetaxel and 100 μL of 200 μM ALDH inhibitor + 1 nM docetaxel. Cells were also treated with 100 μL of 1 nM docetaxel only. 1 nM docetaxel was chosen since it was the IC50 when other primary samples were analyzed in our laboratory. Control wells included blank (media only) and untreated cells (DMSO only). Each experiment was performed in triplicate, and cell seeding density was the same in all wells; therefore, changes in treated cells were compared to untreated DMSO control cells. Plates were returned to the incubator for a 72 h incubation before further processing. Alamar Blue solution was added at 10% of total sample volume, and plates were incubated at 37 °C for 1–4 h before absorbance was analyzed in a plate reader.[65] Alamar Blue has an excitation wavelength of 530–560 nm and an emission wavelength of 590 nm. Total % cell viability/cell survival was calculated by dividing the absorbance of the treated sample by the absorbance of control and multiplying it by 100.

type of inhibition ALDH3A1 (Human ALDH3A1; 4-NBA as substrate)	Ki (Human ALDH3A1; 4-NBA as substrate, fit to competitive inhibition equation, mean ± SE) [µM]	IC50 with versus without preincubation with the cofactor NADP+ (Human ALDH3A1; 5-min preincubation)	Compound	IC50 (Human ALDH3A1; mean ± SE) [µM]	IC50 (DU145) [µM]	cell viability of primary prostate epithelial cultures, combination with docetaxel [1]	cell viability of primary prostate epithelial cultures, single agent [1]
competitive	0.3 ± 0.06	no differences were observed	CCCN(CCC)c1ccc(C=O)cc1[N+](=O)[O-] [Compound 18, 4-(Dipropylamino)-3-Nitrobenzaldehyde]	1.61 ± 0.17	100 ± 13	more potent than DEAB	more potent than DEAB
–	–	–	CCCN(CCC)c1ccc(C=O)cc1Br [Compound 14, 3-Bromo-4-(dipropylamino)benzaldehyde]	8 ± 1.56	61 ± 5	more potent than DEAB	more potent than DEAB
